Here are results for five molecules from US5914351A, “Anti-viral aromatic hydrazones” (Uniroyal Chemical Company, Inc., priority 1997, dated 1999).

Converted amounts (≈) assume the structure as drawn.

Common to all, as to type: cell-based
For one assay, the system named is HIV-1 IIIB. Briefly: Inhibition of HIV-1 induced syncytium formation in CEM cells, HIV-1 IIIB (wild type). As to conditions: Human immunodeficiency virus 1, CCRF-CEM, 96 h, day 4 post infection. The source says:
(§1) CEM cells were obtained from the American Tissue Cell Culture Collection (Rockville, Md.). HIV-1 (IIIB) was originally obtained from the culture supernatant of persistently HIV-1-infected H9 cells and was provided by R. C. Gallo and M. Popovic (National Cancer Institute, National Institutes of Health, Bethesda, Md.). The selection and characterization of the HIV-1 RT mutant strains were done as follows: HIV-1/100-Ile ("100-Ile") was selected for resistance against TIBO R82150 as described in Balzarini et al, Virology 192: 246-253 (1993); HIV-1/103-Asn ("103-Asn") was selected for resistance against TIBO R82913 as described in Balzarini et al, Virology 192: 246-253 (1993); HIV-1/106-Ala ("106-Ala") was selected for resistance against nevirapine as described in Balzarini et al, J. Virol. 67: 5353-5359 (1993); HIV-1/138-Lys ("138-Lys") was selected for resistance against TSAO-m^3T as described in Balzarini et al, Virology 192: 246-253 (1993) and Balzarini et al, Proc. Nat. Acad. Sci. U.S.A. 90: 6952-6956 (1993); HIV-1/181-Cys ("181-Cys") was selected for resistance against pyridinone L-697,661 as described in Balzarini et al, Virology 192: 246-253 (1993); and HIV-1/188-His ("188-His") was selected for resistance against HEPT as described in Balzarini et al, Mol. Pharmocol. 44: 694-701 (1993). 188-His was then further converted to HIV-1/188-Leu ("188-Leu") upon further passage in cell culture in the absence of the HEPT.
(§2) CEM cells were suspended at ≈300,000 cells per mL of culture medium and infected with approximately 100 CCID50 (CCID50 being the 50% cell culture infective dose) of HIV-1 (IIIB) or one of the HIV-1 RT mutant strains described above. Then 100 μL of the infected cell suspensions was added to 200 μL microtiter plate wells containing 100 μL of appropriate serial (5-fold) dilutions of the test compounds. The inhibitory effect of the test compounds on HIV-1 induced syncytium formation in CEM cells was examined microscopically on day 4 post infection. The 50% effective concentration (EC50) was defined as the test compound concentration that inhibits syncytium formation in the HIV-1 infected cell cultures by 50%.

For another assay, the system named is HIV-1/138-Lys. Briefly: Inhibition of HIV-1 induced syncytium formation in CEM cells, RT mutant 138-Lys. The following applies: Human immunodeficiency virus 1, CCRF-CEM, 96 h, read-out: EC50 138-Lys.
Source text: as §1, §2

The subject of the next assay is HIV-1/181-Cys. In words: Inhibition of HIV-1 induced syncytium formation in CEM cells, RT mutant 181-Cys. The following applies: Human immunodeficiency virus 1, CCRF-CEM, 96 h, read-out: EC50 181-Cys.
Source text: as §1
(§3) CEM cells were suspended at ≈300,000 cells per mL of culture medium and infected with approximately 100 CCID50 (CCID50 being the 50% cell culture infective dose) of HIV-1 (IIIB) or one of the HIV-1 RT mutant strains described above. Then 100 μL of the infected cell suspensions was added to 200 μL microtiter plate wells containing 100 μL of appropriate serial (5-fold) dilutions of the test compounds. The inhibitory effect of the test compounds on HIV-1 induced syncytium formation in CEM cells was examined microscopically on day 4 post infection. […]

The next assay deals with HIV-1/106-Ala. In words: Inhibition of HIV-1 induced syncytium formation in CEM cells, RT mutant 106-Ala. The following applies: Human immunodeficiency virus 1, CCRF-CEM, 96 h, read-out: EC50 106-Ala.
Source text: as §1, §3

The subject of a further assay is HIV-1/100-Ile. In words: Inhibition of HIV-1 induced syncytium formation in CEM cells, RT mutant 100-Ile. As to conditions: Human immunodeficiency virus 1, CCRF-CEM, 96 h, read-out: EC50 100-Ile.
Source text: as §1, with “188-His was then further converted to HIV-1/188-Leu ("188-Leu") upon further passage in cell culture in the absence of the HEPT.” left out

Another assay has as its system HIV-1/103-Asn. In words: Inhibition of HIV-1 induced syncytium formation in CEM cells, RT mutant 103-Asn. As to conditions: Human immunodeficiency virus 1, CCRF-CEM, 96 h, read-out: EC50 103-Asn.
Source text: as §1, with “188-His was then further converted to HIV-1/188-Leu ("188-Leu") upon further passage in cell culture in the absence of the HEPT.” left out

For the next assay, the system named is HIV-1/188-Leu. Briefly: Inhibition of HIV-1 induced syncytium formation in CEM cells, RT mutant 188-Leu. The following applies: Human immunodeficiency virus 1, CCRF-CEM, 96 h, read-out: EC50 188-Leu.
Source text: as §1, with “188-His was then further converted to HIV-1/188-Leu ("188-Leu") upon further passage in cell culture in the absence of the HEPT.” left out

On to `Cc1occc1C(=O)Nc1ccc(Cl)c(C=NN(C)C)c1` [Compound 1], for which the results for the EC50 in the assay with HIV-1 IIIB and in the assay with HIV-1/138-Lys were 0.225 µg/mL (≈ 0.736 µM) and 1.6 µg/mL (≈ 5.23 µM), respectively.
For the molecule `Cc1occc1C(=S)Nc1ccc(Cl)c(C=NN2CCCC2)c1` [Compound 4], the EC50 (in general, the concentration that produces a half-maximal response) was 0.015 µg/mL (≈ 0.0431 µM) in the assay on HIV-1 IIIB; 0.08 µg/mL (≈ 0.23 µM) in the assay on HIV-1/138-Lys; 0.1 µg/mL (≈ 0.287 µM) in the assay with HIV-1/181-Cys; 0.1 µg/mL (≈ 0.287 µM) in the assay with HIV-1/106-Ala; 0.33 µg/mL (≈ 0.949 µM) in the assay with HIV-1/100-Ile; 0.34 µg/mL (≈ 0.977 µM) in the assay with HIV-1/103-Asn. Moreover, the EC50 in the assay on HIV-1/188-Leu worked out at 4.5 µg/mL (≈ 12.9 µM).
For `Cc1occc1C(=S)Nc1ccc(Cl)c(C=NN2CCOCC2)c1` [Compound 5, N-[4-chloro-3-[(4-morpholinylimino)methyl]phenyl]-2-methyl-3-furancarbothioamide], in the assay with HIV-1 IIIB, the EC50 is 0.13 µg/mL (≈ 0.357 µM).
In the case of `Cc1occc1C(=S)Nc1ccc(Cl)c(C=NN(C)C)c1` [Compound 2], the EC50 in the assay with HIV-1 IIIB came to 0.008 µg/mL (≈ 0.0249 µM); in the assay with HIV-1/138-Lys, 0.04 µg/mL (≈ 0.124 µM); in the assay with HIV-1/181-Cys it was 0.13 µg/mL (≈ 0.404 µM); in the assay with HIV-1/106-Ala it was 0.065 µg/mL (≈ 0.202 µM); in the assay on HIV-1/100-Ile, 0.14 µg/mL (≈ 0.435 µM); with HIV-1/103-Asn it was 0.65 µg/mL (≈ 2.02 µM).
As to `Cc1occc1C(=O)Nc1ccc(Cl)c(C=NN2CCCC2)c1` [Compound 3], the EC50 worked out at 0.325 µg/mL (≈ 0.979 µM) with HIV-1 IIIB, 1.6 µg/mL (≈ 4.82 µM) in the assay with HIV-1/138-Lys, 1 µg/mL (≈ 3.01 µM) with HIV-1/181-Cys and 1.3 µg/mL (≈ 3.92 µM) in the assay on HIV-1/106-Ala.
